The conditions of data set [1]: Crystal; Differential scanning calorimeter. A general note: DSC measures the heat that a sample takes up or gives off during a temperature scan.
A short description of data set [2]: Molar enthalpy of transition or fusion. The note with it: Crystal; Differential scanning calorimeter.

Here are results for 7 compounds from the NIST ThermoML archive (doi:10.1016/j.tca.2012.03.028).

As for `O=C(O)c1ccccc1` [benzoic acid], in data set [1], the Normal melting temperature was determined as 122.4 °C. For the same compound, the “Molar enthalpy of transition or fusion” value in data set [2] was determined as 4.3 kcal/mol.
As to `O=C(Oc1ccccc1)c1ccccc1O` [phenyl salicylate], the Normal melting temperature in data set [1] was 41.8 °C. In addition, in data set [2], the “Molar enthalpy of transition or fusion” value amounted to 4.54 kcal/mol.
`c1ccc(-c2ccccc2)cc1` [biphenyl]: the Normal melting temperature in data set [1] amounted to 69.0 °C. The “Molar enthalpy of transition or fusion” value in data set [2] is 4.42 kcal/mol.
Turning to `c1ccc2ccccc2c1` [naphthalene], the Normal melting temperature in data set [1] came out at 80.2 °C. The “Molar enthalpy of transition or fusion” value in data set [2] stood at 4.5 kcal/mol.
With `O=C(C(=O)c1ccccc1)c1ccccc1` [1,2-diphenylethanedione], the Normal melting temperature in data set [1] amounted to 95 °C. In data set [2], the “Molar enthalpy of transition or fusion” value is 5.57 kcal/mol.
For `O=C(O)C(c1ccccc1)c1ccccc1` [2,2-diphenylethanoic acid], the Normal melting temperature in data set [1] was determined as 147.2 °C. Besides, the “Molar enthalpy of transition or fusion” value in data set [2] turned out to be 7.45 kcal/mol.
As for `CC(=O)Nc1ccccc1` [N-phenylethanamide], the Normal melting temperature in data set [1] stood at 114.4 °C. The “Molar enthalpy of transition or fusion” value in data set [2] was 5.22 kcal/mol.
